Assay results reported in EP3046573B1, “AMYLIN ANALOGUES” (Zealand Pharma A/S, priority 2013, dated 2015).
Numbered stars: 1 amine (or outer) side, 2 acyl side, 3 side chain; on linkers, the order of the positions; unused ones are H or OH. Bridge positions count the residues as written; N and C are the ends. Square brackets hold non-standard residues; d marks the D form. Peptide text beside a SMILES is read from it. * marks the point of attachment. C20 diacid = O=C(O)CCCCCCCCCCCCCCCCCCC(=O)*; γGlu = O=C(O)[C@H](CCC(=O)[*:2])N[*:1]; NMeI = CC[C@H](C)[C@H](NC)C(=O)O; Sar = CNCC(=O)O

Columns and labels:
[1] = molecular target: T1, human amylin receptor 3 (hAMYR3) consisting of hCTR2 co-expressed with human Receptor Activity Modifying Protein 3 (hRAMP3) (Homo sapiens, UniProt O60896+P30988); test: hAMYR3 assay: induction of cAMP (AlphaScreen cAMP Assay kit) in COS7 cells expressing hAMYR3; type: cell-based
T1 construct: expressed in transfected cells
T1 sequence (P30988 25-474): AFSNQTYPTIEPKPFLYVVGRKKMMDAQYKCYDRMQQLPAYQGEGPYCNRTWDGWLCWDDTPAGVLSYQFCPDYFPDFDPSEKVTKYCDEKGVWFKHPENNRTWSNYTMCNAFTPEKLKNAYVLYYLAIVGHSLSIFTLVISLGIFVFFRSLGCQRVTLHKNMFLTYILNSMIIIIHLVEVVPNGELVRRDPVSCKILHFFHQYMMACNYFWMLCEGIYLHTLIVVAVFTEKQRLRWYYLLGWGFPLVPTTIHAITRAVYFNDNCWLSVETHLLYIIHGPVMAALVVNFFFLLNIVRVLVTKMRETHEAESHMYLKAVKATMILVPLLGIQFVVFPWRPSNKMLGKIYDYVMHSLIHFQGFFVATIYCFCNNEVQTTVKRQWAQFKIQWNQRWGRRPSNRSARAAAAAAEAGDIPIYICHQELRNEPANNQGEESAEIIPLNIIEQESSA
T1 sequence (O60896 24-148 partner): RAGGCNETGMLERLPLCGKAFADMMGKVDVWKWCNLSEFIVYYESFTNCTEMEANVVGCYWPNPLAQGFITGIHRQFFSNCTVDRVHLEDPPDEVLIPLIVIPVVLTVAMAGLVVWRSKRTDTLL
Outline: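 Stable COS7 clone co-expressing hCTR2 and hRAMP3, stimulated 15 min at 37° C with increasing peptide in Tyrode buffer pH 7.4 with 100 µM IBMX and 0.1% casein. cAMP measured by AlphaScreen after lysis; EC50 and % efficacy versus pramlintide from 4PL fit.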

[2] = molecular target: T2, human calcitonin receptor (hCTR2) (Homo sapiens, UniProt P30988); test: hCTR2 assay: induction of cAMP (AlphaScreen cAMP Assay kit) in COS7 cells expressing hCTR2; type: cell-based
T2 construct: expressed in transfected cells
T2 sequence (P30988 25-474): T1 sequence (P30988 25-474)
Outline: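 Stable hCTR2 clone in RAMP-naive COS7 cells; peptides titrated in Tyrode buffer (pH 7.4) with 100 µM IBMX, 0.1% casein, 15 min at 37° C. cAMP read by AlphaScreen after lysis; EC50 and efficacy relative to pramlintide from 4PL fit.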

[3] = Solubility assessment (turbidity absorbance at 325 nm); type: physicochemical; conditions: stock 2 mg/ml diluted 1:1, ambient temperature (typically 25°C), n=1; for Solubility, Acetate buffer pH 4: 100 mM acetate buffer pH 4.0; for Solubility, Acetate buffer pH 5: 100 mM acetate buffer pH 5.0; for Solubility, Histidine buffer pH 6: 100 mM histidine buffer pH 6.0; for Solubility, Histidine buffer pH 7: 100 mM histidine buffer pH 7.0; for Solubility, Phosphate buffer pH 6: 100 mM phosphate buffer pH 6.0; for Solubility, Phosphate buffer pH 7: 100 mM phosphate buffer pH 7.0; for Solubility, Phosphate buffer pH 7.5: 100 mM phosphate buffer pH7.5
Outline: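 Stock 2 mg/ml peptide, H2O/HCl pH 2.5; 1:1 into 100 mM buffers: acetate pH 4.0/5.0, His pH 6.0/7.0, phosphate pH 6.0/7.0/7.5. A280 + A325, ~25°C, n=1. Soluble ≥ 1 mg/ml if A325 ≤ 0.02.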

SMILES	EC50 [1]	EC50 [2]	Solubility, Acetate buffer pH 4 [3]	Solubility, Acetate buffer pH 5 [3]	Solubility, Histidine buffer pH 6 [3]	Solubility, Histidine buffer pH 7 [3]	Solubility, Phosphate buffer pH 6 [3]	Solubility, Phosphate buffer pH 7 [3]	Solubility, Phosphate buffer pH 7.5 [3]
CC[C@H](C)[C@@H](C(=O)N[C@@H](CC(C)C)C(=O)N[C@@H](CO)C(=O)N[C@@H](CO)C(=O)N[C@H](C(=O)N[C@@H](CC(N)=O)C(=O)N[C@H](C(=O)NCC(=O)N[C@@H](CO)C(=O)N[C@@H](CC(N)=O)C(=O)N[C@H](C(=O)N[C@H](C(N)=O)C(C)C)[C@@H](C)O)C(C)C)[C@@H](C)O)N(C)C(=O)[C@H](C)NC(=O)CN(C)C(=O)[C@H](Cc1ccccc1)NC(=O)[C@H](CC(N)=O)NC(=O)[C@H](CC(N)=O)NC(=O)[C@H](CO)NC(=O)[C@H](CO)NC(=O)[C@H](CCCNC(=N)N)NC(=O)[C@H](Cc1c[nH]cn1)NC(=O)[C@H](CC(C)C)NC(=O)[C@H](Cc1ccccc1)NC(=O)[C@H](CCC(=O)O)NC(=O)[C@H](C)NC(=O)[C@H](CC(C)C)NC(=O)[C@H](CCCNC(=N)N)NC(=O)[C@H](CCC(N)=O)NC(=O)[C@@H](NC(=O)[C@H](C)NC(=O)[C@@H]1CSSC[C@H](NC(=O)[C@H](CCCNC(=N)N)NC(=O)CC[C@H](NC(=O)CCCCCCCCCCCCCCCCCCC(=O)O)C(=O)O)C(=O)N[C@@H](CC(N)=O)C(=O)N[C@@H]([C@@H](C)O)C(=O)N[C@@H](C)C(=O)N[C@@H]([C@@H](C)O)C(=O)N1)[C@@H](C)O [Compound 98, [19CD]-isoGlu-RC()NTATC()ATQRLAEFLHRSSNNF-Gly(Me)-A-Ile(Me)-LSSTNVGSNTV-NH2] ({C20 diacid-γGlu}-RCNTATCATQRLAEFLHRSSNNF[Sar]A[NMeI]LSSTNVGSNTV-NH2; disulfide 2-7)	1.7 nM	0.35 nM	SS (SS indicates solubility ≥ 1mg/ml)	SS (SS indicates solubility ≥ 1mg/ml)	SS (SS indicates solubility ≥ 1mg/ml)	SS (SS indicates solubility ≥ 1mg/ml)	II (II indicates solubility ≤ 1 mg/ml)	SS (SS indicates solubility ≥ 1mg/ml)	SS (SS indicates solubility ≥ 1mg/ml)
CC[C@H](C)[C@H](NC(=O)[C@@H](NC(=O)[C@H](CC(N)=O)NC(=O)[C@H](CO)NC(=O)CNC(=O)[C@@H](NC(=O)[C@H](CC(N)=O)NC(=O)[C@@H](NC(=O)[C@H](CO)NC(=O)[C@H](CO)NC(=O)[C@H](CC(C)C)NC(=O)[C@H]([C@@H](C)CC)N(C)C(=O)[C@H](C)NC(=O)CN(C)C(=O)[C@H](Cc1ccccc1)NC(=O)[C@H](CC(N)=O)NC(=O)[C@H](CC(N)=O)NC(=O)[C@H](CO)NC(=O)[C@H](CO)NC(=O)[C@H](CCCNC(=N)N)NC(=O)[C@H](Cc1c[nH]cn1)NC(=O)[C@H](CC(C)C)NC(=O)[C@H](Cc1ccccc1)NC(=O)[C@H](CCC(=O)O)NC(=O)[C@H](C)NC(=O)[C@H](CC(C)C)NC(=O)[C@H](CCCNC(=N)N)NC(=O)[C@H](CCC(N)=O)NC(=O)[C@@H](NC(=O)[C@H](C)NC(=O)[C@@H]1CSSC[C@H](NC(=O)[C@H](CCCNC(=N)N)NC(=O)CC[C@H](NC(=O)CCCCCCCCCCCCCCCCCCC(=O)O)C(=O)O)C(=O)N[C@@H](CC(N)=O)C(=O)N[C@@H]([C@@H](C)O)C(=O)N[C@@H](C)C(=O)N[C@@H]([C@@H](C)O)C(=O)N1)[C@@H](C)O)[C@@H](C)O)C(C)C)[C@@H](C)O)C(N)=O [Compound 99, [19CD]-isoGlu-RC()NTATC()ATQRLAEFLHRSSNNF-Gly(Me)-A-Ile(Me)-LSSTNVGSNTI-NH2] ({C20 diacid-γGlu}-RCNTATCATQRLAEFLHRSSNNF[Sar]A[NMeI]LSSTNVGSNTI-NH2; disulfide 2-7)	2.2 nM	0.27 nM	SS (SS indicates solubility ≥ 1mg/ml)	SS (SS indicates solubility ≥ 1mg/ml)	SS (SS indicates solubility ≥ 1mg/ml)	SS (SS indicates solubility ≥ 1mg/ml)	II (II indicates solubility ≤ 1 mg/ml)	SS (SS indicates solubility ≥ 1mg/ml)	SS (SS indicates solubility ≥ 1mg/ml)
CC[C@H](C)[C@@H](C(=O)N[C@@H](CC(C)C)C(=O)N[C@@H](CO)C(=O)N[C@@H](CO)C(=O)N[C@H](C(=O)N[C@@H](CC(N)=O)C(=O)N[C@H](C(=O)NCC(=O)N[C@@H](CO)C(=O)N[C@@H](CC(N)=O)C(=O)N[C@H](C(=O)N[C@@H](CC(C)C)C(N)=O)[C@@H](C)O)C(C)C)[C@@H](C)O)N(C)C(=O)[C@H](C)NC(=O)CN(C)C(=O)[C@H](Cc1ccccc1)NC(=O)[C@H](CC(N)=O)NC(=O)[C@H](CC(N)=O)NC(=O)[C@H](CO)NC(=O)[C@H](CO)NC(=O)[C@H](CCCNC(=N)N)NC(=O)[C@H](Cc1c[nH]cn1)NC(=O)[C@H](CC(C)C)NC(=O)[C@H](Cc1ccccc1)NC(=O)[C@H](CCC(=O)O)NC(=O)[C@H](C)NC(=O)[C@H](CC(C)C)NC(=O)[C@H](CCCNC(=N)N)NC(=O)[C@H](CCC(N)=O)NC(=O)[C@@H](NC(=O)[C@H](C)NC(=O)[C@@H]1CSSC[C@H](NC(=O)[C@H](CCCNC(=N)N)NC(=O)CC[C@H](NC(=O)CCCCCCCCCCCCCCCCCCC(=O)O)C(=O)O)C(=O)N[C@@H](CC(N)=O)C(=O)N[C@@H]([C@@H](C)O)C(=O)N[C@@H](C)C(=O)N[C@@H]([C@@H](C)O)C(=O)N1)[C@@H](C)O [Compound 100, [19CD]-isoGlu-RC()NTATC()ATQRLAEFLHRSSNNF-Gly(Me)-A-Ile(Me)-LSSTNVGSNTL-NH2] ({C20 diacid-γGlu}-RCNTATCATQRLAEFLHRSSNNF[Sar]A[NMeI]LSSTNVGSNTL-NH2; disulfide 2-7)	6.3 nM	0.37 nM	SS (SS indicates solubility ≥ 1mg/ml)	SS (SS indicates solubility ≥ 1mg/ml)	SS (SS indicates solubility ≥ 1mg/ml)	SS (SS indicates solubility ≥ 1mg/ml)	II (II indicates solubility ≤ 1 mg/ml)	SS (SS indicates solubility ≥ 1mg/ml)	SS (SS indicates solubility ≥ 1mg/ml)
